Legend:
Assay type in all cases: cell-based, Sprague-Dawley rat
hippocampal slice [1] = test: Carbachol-induced beta rhythms in hippocampal tissue (64-electrode recording, FFT); conditions: FIG. 2
Source text: (§1) Procedures for the preparation of the recently introduced Multi-Electrode Dish (Panasonic: MED probe) are described by Oka et al., J Neurosci Methods 93: 61-67 (1999). The device has an array of 64 planar microelectrodes, each having a size of 50×50 μm, arranged in an 8 by 8 pattern. Probes used in the experiments described below were medium arrays with 300 μm interelectrode spacing (Panasonic: MED-P530AP).
A 17-25 day old Sprague-Dawley rat was sacrificed by decapitation after anesthesia using halothane (2-Bromo-2-chloro-1,1,1-trifluoroethane, Sigma: B4388), and the whole brain was removed. The brain was immediately soaked in ice-cold, oxygenated preparation buffer of the following composition (in mM): 124 NaCl, 26 NaHCO3, 10 glucose, 3 KCl, 1.25 NaH2PO4, 1.5 CaCl2, 0.5 MgSO4, for approximately 2 minutes. Appropriate portions of the brain were trimmed and placed on the ice-cold stage of a vibrating tissue slicer (Leica: VT-1000S). […]
During electrophysiological recording, the slices on the MED probe were placed in a small CO2 incubator (Yamato: model IC400) at 32° C. […] In this condition, responses were recorded for more than 2 hours. […]
(§2) Spontaneous and evoked field potentials at all 64 sites were recorded simultaneously with the multi-channel recording system (Panasonic: MED64 system) at a 20 kHz sampling rate. […]

hippocampal slice [2] = test: Evoked responses following Schaffer collateral stimulation in presence and absence of carbachol (field potentials, current source density)
Description: (§3) A 17-25 day old Sprague-Dawley rat was sacrificed by decapitation after anesthesia using halothane (2-Bromo-2-chloro-1,1,1-trifluoroethane, Sigma: B4388), and the whole brain was removed. The brain was immediately soaked in ice-cold, oxygenated preparation buffer of the following composition (in mM): 124 NaCl, 26 NaHCO3, 10 glucose, 3 KCl, 1.25 NaH2PO4, 1.5 CaCl2, 0.5 MgSO4, for approximately 2 minutes. Appropriate portions of the brain were trimmed and placed on the ice-cold stage of a vibrating tissue slicer (Leica: VT-1000S). The stage was immediately filled with both oxygenated and frozen preparation buffers. The thickness of each tissue slice was 350 μm. Each slice was gently taken off the blade using a blunt-end pipette, and immediately soaked in oxygenated preparation buffer for at least 1 hour at room temperature. A slice was then placed on the center of the MED probe, positioned to cover the 8×8 array. After positioning the slice, the MED probe was placed directly in a box filled with 95% O2 and 5% CO2 and allowed to recover and adhere at 32° C. for 1 hour.
(§4) During electrophysiological recording, the slices on the MED probe were placed in a small CO2 incubator (Yamato: model IC400) at 32° C. The slices remained on the MED probe, which was attached to a recording interface, and a moisturized 95% O2 and 5% CO2 gas mixture was blown from above. In this condition, responses were recorded for more than 2 hours.
Carbachol was obtained from Sigma. A carbachol solution was applied to the neuronal samples at known concentrations of either 25 or 50 μM. The lower concentration was used in all except two cases. […] Carbachol solutions were prepared daily from frozen aliquots.
Spontaneous and evoked field potentials at all 64 sites were recorded simultaneously with the multi-channel recording system (Panasonic: MED64 system) at a 20 kHz sampling rate. In the case of the evoked response, one or more than two microelectrodes out of the 64 available were chosen for stimulating. Bipolar constant current pulses (20 to 40 μA, 0.1 msec) were produced by the data acquisition software through the isolator. The stimulating microelectrodes were selected by the 64 switchbox.
The method of continuous, two-dimensional current source density employed has been previously described (Shimono et al., supra). The 2-dimensional array of electrodes allows for simultaneous estimation of current flows in any direction within the plane of the slice. The data was low-pass filtered at 100 Hz and spatially smoothed by a 3×3-weighted average kernel (0 1/8 0, 1/8 1/2 1/8, and 0 1/8 0). […] A limitation of the technique is that only large spatial patterns, with radii≧one-half of the interelectrode distance, can be accurately resolved. Additionally, low-pass filtering removes high-frequency data, limiting the amount of fine detail that can be observed.

hippocampal slice [3] = test: Network level evoked response to single pulse Schaffer commissural stimulation during carbachol-induced rhythms, multi-electrode dish
Source text: as §1
For sufficient adhesion of the slice to the probe, the surface of the MED probe was treated with 0.1% polyethylenimine (Sigma: P-3143) in 25 mM borate buffer, pH 8.4, for 8 hours at room temperature. The probe surface was rinsed 3 times with sterile distilled water. The probe (chamber) was then filled with DMEM/F-12 mixed medium, containing 10% fetal bovine serum (GIBCO: 16141-079) and 10% horse serum (GIBCO: 16050-122), for at least 1 hour at 37° C. DMEM/F-12 mixed medium is a 1:1 mixture of Dulbecco's Modified Eagle's Medium and Ham's F-12 (GIBCO: D/F-12 medium, 12400-024), supplemented with N2 supplement (GIBCO: 17502-014) and hydrocortisone (20 nM, Sigma, H0888).
as §3, §4
Carbachol was obtained from Sigma. […]
as §2

[4] = CA1 apical dendrites, presence of carbachol
[5] = single pulse stimulation with carbachol, eight slices
[6] = 100 μM heptachlor, Schaffer commissural stimulation, FIG. 8

| SMILES | dominant frequency of rhythms (normalized power spectra, all 64 electrodes) (hippocampal slice [1]; 25 μM carbachol) | stability of rhythms (hippocampal slice [1]; after carbachol infusion) | intensity of activity (current source density) (hippocampal slice [2]; 25 μM carbachol vs without carbachol, 10 ms after stimulation) | spread of activity (current source density) (hippocampal slice [2]; 25 μM carbachol vs without carbachol, 10 ms after stimulation, particularly field CA3) | start of slow negative going component after stimulation (hippocampal slice [2]; [4]) [ms] | start of slow negative going component after the initial response (hippocampal slice [2]; [4]) | return to baseline after stimulation (hippocampal slice [2]; CA1 stratum radiatum and oriens, carbachol-induced beta waves, FIG. 4) [ms] | return to baseline of positive-going potential (hippocampal slice [2]; CA3 basal dendritic field, carbachol-driven beta rhythms, FIG. 5) | stimulation trials eliciting a sustained network response (hippocampal slice [2]; Schaffer collateral stimulation in the presence of cholinergic rhythms) | frequency of bursts of spikes accompanying the first carbachol dependent slow potential (hippocampal slice [2]; field CA3) | recordings with responses similar to the control responses (hippocampal slice [2]; [5]) | traces with bursts of spikes in CA3 stratum pyramidale and prominent after potentials in CA1 and CA3 (hippocampal slice [2]; [5]) | depolarizing phase of the slow component of the waveform (hippocampal slice [3]; 100 μM heptachlor, FIG. 8) | fast component, corresponding to the traditional evoked response (hippocampal slice [3]; [6]) | slow component of the network complex evoked response (hippocampal slice [3]; [6]) | network level evoked response to single pulse Schaffer commissural stimulation upon infusion (hippocampal slice [3]; figure legends FIGS. 8-11) |
| --- | --- | --- | --- | --- | --- | --- | --- | --- | --- | --- | --- | --- | --- | --- | --- | --- |
| C[N+](C)(C)CCOC(N)=O [carbachol] | in the beta range | stable for over two hours | markedly increased | far greater | 25 | about 10 msec | 140 | approximately 125 ms | approximately 70% | 100-200 Hz | 16 of 53 | 37 of 53 | – | – | – | – |
| ClC1=C(Cl)C2(Cl)C3C(Cl)C=CC3C1(Cl)C2(Cl)Cl (stereo not shown) [heptachlor] | – | – | – | – | – | – | – | – | – | – | – | – | complete elimination | not changed | changed dramatically | changes |

— patent US20030091980A1, “Detection and characterization of psychoactives using analysis of network level physiological responses in a neuronal sample” (priority 2001, published 2003)
